{"source": "patent US20250340701A1", "about": "“DENDRIMER-DELIVERED ALPHA-PARTICLE RADIOTHERAPY FOR TREATMENT OF GLIOBLASTOMA AND OTHER CANCERS IN THE BRAIN” (priority 2022, published 2025)", "tested_on": "GL261 glioblastoma cells", "assay": "Colony survival measurement, GL261 glioblastoma cells", "assay_type": "cell-based, murine", "experimental": "GL261 glioblastoma cells were incubated with different radioactivity concentrations of ^225Ac-DOTA dendrimer; cells were plated for colony survival measurement.\nCells, plated at 500,000 cells per well, were plated in 6-well plates and were allowed to adhere overnight before being incubated with varying concentrations of radioactivity (4.63, 9.25, 18.5, 37, 74 kBq/mL) at pH 7.4 for a duration of 6 hours. In case of the combination runs with temozolomide (TMZ), the free drug incubation at respective concentrations, was performed simultaneously with the radioactivity for a duration of 6 hours. […] Once cell colonies were observed (approximately 6 weeks for the cancer cells and approximately 3 weeks for the macrophages), the media was removed, dishes were washed with water, and the colonies were fixed and stained using 6% (w/v) glutaraldehyde and 0.05% (w/v) Crystal violet, respectively, following which they were counted using a colony counter pen. The number of colonies counted for each of the treatment groups was then normalized by the number of colonies from the control group to obtain the survival fraction, while accounting for the plating efficiency. The same procedure was used to obtain the survival fractions for free chemotherapeutic treatment, replacing the radioactivity concentrations with free chemotherapeutic concentration while incubating the cells. […]"}
{"smiles": "O=C([O-])CN1CCN(CC(=O)[O-])CCN(CC(=O)[O-])CCN(CC(=O)[O-])CC1.[225Ac+3]", "note": "[^225Ac-DOTA]", "values": [{"measurement": "colony survival fraction of GL261 cells versus resting and activated BV2 macrophages", "setting": "FIG. 8 left", "value": "significantly lower"}, {"measurement": "GL261 colony survival fraction in the presence of TMZ versus without TMZ", "setting": "TMZ incubated simultaneously for 6 hours, at 2.1-3.7 times less than its IC50, FIG. 10 left, FIG. 12", "value": "lower"}]}
